Results: ChEMBL document CHEMBL1132443, “Antimalarial, antiproliferative, and antitumor activities of artemisinin-derived, chemically robust, trioxane dimers” (J Med Chem, 1999)

System: Plasmodium falciparum
Assay: In vitro antimalarial activity against chloroquine-sensitive Plasmodium falciparum NF54
Assay type: functional, organism-based

Structure (SMILES)	IC50
C[C@H]1[C@@H](C#Cc2cccc(C#C[C@H]3O[C@@H]4O[C@]5(C)CC[C@H]6[C@H](C)CC[C@@H]([C@H]3C)[C@@]46OO5)c2)O[C@@H]2O[C@]3(C)CC[C@H]4[C@H](C)CC[C@@H]1[C@@]24OO3	36 nM
C[C@H]1[C@@H](CC(=O)c2ccc(C(=O)C[C@H]3O[C@@H]4O[C@]5(C)CC[C@H]6[C@H](C)CC[C@@H]([C@H]3C)[C@@]46OO5)cc2)O[C@@H]2O[C@]3(C)CC[C@H]4[C@H](C)CC[C@@H]1[C@@]24OO3	1.9 nM
C[C@H]1[C@@H](CC(=O)c2cccc(C(=O)C[C@H]3O[C@@H]4C[C@]5(C)CC[C@H]6[C@H](C)CC[C@@H]([C@H]3C)[C@@]46OO5)c2)O[C@@H]2C[C@]3(C)CC[C@H]4[C@H](C)CC[C@@H]1[C@@]24OO3	1.9 nM
C[C@H]1[C@H](c2ccc([C@@H]3O[C@@H]4O[C@]5(C)CC[C@H]6[C@H](C)CC[C@@H]([C@H]3C)[C@@]46OO5)o2)O[C@@H]2O[C@]3(C)CC[C@H]4[C@H](C)CC[C@@H]1[C@@]24OO3	3.2 nM
C[C@H]1[C@@H](C#Cc2ccc(C#C[C@H]3O[C@@H]4O[C@]5(C)CC[C@H]6[C@H](C)CC[C@@H]([C@H]3C)[C@@]46OO5)cc2)O[C@@H]2O[C@]3(C)CC[C@H]4[C@H](C)CC[C@@H]1[C@@]24OO3	30 nM
COc1cc(OC)c([C@@H]2O[C@@H]3O[C@]4(C)CC[C@H]5[C@H](C)CC[C@@H]([C@H]2C)[C@@]35OO4)cc1[C@@H]1O[C@@H]2O[C@]3(C)CC[C@H]4[C@H](C)CC[C@@H]([C@H]1C)[C@@]24OO3	1.3 nM
C[C@@H]1CC[C@H]2[C@@H](C)C(=O)O[C@@H]3O[C@@]4(C)CC[C@@H]1[C@]32OO4 [ARTEMISININ]	9.7 nM
